Assay results as given in ChEMBL document CHEMBL5661943, “ASAP - In vitro antiviral effect” (2024).
“And” between values parts separate entries of the source, which are not always exact repeats. Identical values can stand only once.

Experiments:
[1] = test system: dengue virus type 2; test: Functional immunofluorescence assay to measure dose dependent changes in antiviral-drug inhibitory efficacy against Dengue virus type 2 Thailand/16681/84 in Vero E6/TMPRSS2 cells (cotreated with P-gp inhibitor, Elacridar). Cells are treated with antiviral candidates that are serially diluted, following infection, cells are fixed. EC50 is reported via analysis of immunofluorescence staining. The assay has been performed by Icahn School of Medicine at Mount Sinai.; type: organism-based, Chlorocebus sabaeus, VeroE6/TMPRSS2; conditions: Dengue virus
[2] = test system: Zika virus; test: (§1) Functional CPE-based assay to measure dose dependent changes in antiviral-drug inhibitory efficacy against Zika virus MR766 in Vero E6 miRFP670 cells. Cells are treated with antiviral candidates that are serially diluted. EC50 is reported via analysis of MTS assay as a readout of CPE. The assay has been performed by KU Leuven.; type: organism-based, Chlorocebus sabaeus, Vero C1008
[3] = test system: dengue virus type 2; test: Functional assay to measure dose dependent changes in antiviral-drug inhibitory efficacy against Dengue virus type 2 New Guinea C in Vero E6 miRFP670 cells (cotreated with P-gp inhibitor, CP100356). Cells are treated with antiviral candidates that are serially diluted, following infection, cells are fixed. EC50 is reported via analysis of fluorescence intensity using high-content imager. The …; type: organism-based, Chlorocebus sabaeus, Vero C1008
[4] = test system: Zika virus; test: as §1, with “cells (cotreated with P-gp inhibitor, CP100356).” for “cells.”; type: organism-based, Chlorocebus sabaeus, Vero C1008; conditions: for EC90: P-gp concentration 500 nM, P-gp inhibitor CP100356
[5] = test system: Zika virus; test: EC50 is reported via analysis of immunofluorescence staining. The assay has been performed by Icahn School of Medicine at Mount Sinai.; type: functional, organism-based, Chlorocebus sabaeus, VeroE6/TMPRSS2; conditions: Zika virus; for EC90: P-gp concentration 2 uM, P-gp inhibitor Elacidar

O=C(Nc1ccc2c(c1)CNC2)c1cccc2[nH]ncc12
EC50 ([1]; VeroE6/TMPRSS2): > 50 µM
EC90 ([1]; VeroE6/TMPRSS2, Maximum measured 158.189 %, Minimum measured 143.688 %, P-gp concentration 2 uM, P-gp inhibitor Elacidar): > 50 µM
EC50 ([2]; Zika virus, Vero C1008): < 0.391 µM
EC90 ([2]; Zika virus, Vero C1008, Baseline response 0 %, Hill slope -0.113, Maximum measured 48.96 %, Maximum response 100 %, Minimum measured -6.302 %, R squared 0.011): < 0.391 µM
EC50 ([3]; Dengue virus, Vero C1008): < 0.391 µM
EC90 ([3]; Dengue virus, Vero C1008, Baseline response 0 %, Hill slope 0.492, Maximum measured 128.823 %, Maximum response 100 %, Minimum measured 60.42 %, P-gp concentration 500 nM, R squared 0.116, P-gp inhibitor CP100356): < 0.391 µM

CCc1cc(Br)cc2c(Cc3ccc(-c4nnn[nH]4)cc3)c[nH]c12
EC50 ([2]; Zika virus, Vero C1008): > 50 µM
EC90 ([2]; Zika virus, Vero C1008, Baseline response 0 %, Hill slope -0.347, Maximum measured 5.052 %, Maximum response 100 %, Minimum measured -3.467 %, R squared 0.177): > 50 µM
EC90 ([2]; Zika virus, Vero C1008, Maximum measured -3.488 %, Minimum measured -8.239 %): > 50 µM
EC50 ([4]; Zika virus, Vero C1008): > 50 µM
EC90 ([4]; Zika virus, Vero C1008, Maximum measured 2.453 %, Minimum measured -6.07 %): > 50 µM
EC90 ([3]; Baseline response 0 %, Hill slope -20.83, Maximum measured 154.882 %, Maximum response 100 %, Minimum measured 18.569 %, P-gp concentration 500 nM, R squared 0.389, P-gp inhibitor CP100356): > 25 µM
EC50 ([3]; Dengue virus, Vero C1008): 24.8 µM
EC90 ([3]; Dengue virus, Vero C1008, Baseline response 0 %, Hill slope -25.951, Maximum measured 114.444 %, Maximum response 100 %, Minimum measured 0.23 %, P-gp concentration 500 nM, R squared 0.943, P-gp inhibitor CP100356): 26.9 µM
EC50 ([3]; vero c1008): 23.3 µM

O=C(Nc1cc(Cl)cc(C(=O)Nc2ccc(C3CCNCC3)cc2)c1)OCc1ccccc1
EC50 ([2]; Zika virus, Vero C1008): > 50 µM
EC90 ([2]; Zika virus, Vero C1008, Maximum measured […], Minimum measured -3.389 %): > 50 µM
EC50 ([4]; Zika virus, Vero C1008): > 50 µM
EC90 ([4]; Zika virus, Vero C1008, Maximum measured 2.883 %, Minimum measured -3.299 %): > 50 µM
EC90 ([3]; Baseline response 0 %, Hill slope -20.516, Maximum measured 137.543 %, Maximum response 100 %, Minimum measured 2.498 %, P-gp concentration 500 nM, R squared 0.862, P-gp inhibitor CP100356): 1.68 µM
EC50 ([3]; Dengue virus, Vero C1008): 2.86 µM
EC90 ([3]; Dengue virus, Vero C1008): 3.23 µM
EC50 ([3]; vero c1008): 1.51 µM

O=C1Cc2c(cccc2C(=O)Nc2ccc3c(c2)CNC3)N1
EC50 ([2]; Zika virus, Vero C1008): > 50 µM
EC90 ([2]; Zika virus, Vero C1008, Baseline response 0 %, Hill slope 0.284, Maximum measured 8.076 %, Maximum response 100 %, Minimum measured -0.771 %, R squared 0.143): > 50 µM
EC50 ([4]; Zika virus, Vero C1008): > 50 µM
EC90 ([4]; Zika virus, Vero C1008, Baseline response 0 %, Hill slope 0.131, Maximum measured 3.439 %, Maximum response 100 %, Minimum measured 0.392 %, R squared 0.059): > 50 µM
EC50 ([3]; Dengue virus, Vero C1008): > 50 µM
EC90 ([3]; Dengue virus, Vero C1008, Maximum measured 146.808 %, Minimum measured 90.834 %, P-gp concentration 500 nM, P-gp inhibitor CP100356): > 50 µM

N#C[C@H](Nc1ccc2c(c1)CNC2)c1cc(Cl)cc2[nH]ncc12
EC50 ([5]; VeroE6/TMPRSS2): 7.2 µM
EC90 ([5]; VeroE6/TMPRSS2, Baseline response 0 %, Hill slope -1.174, Maximum measured 85.278 %, Maximum response 50 %, Minimum measured 14.695 %, R squared 0.497): > 16.7 µM
EC50 ([2]; Zika virus, Vero C1008): 42.5 µM
EC90 ([2]; Zika virus, Vero C1008, Baseline response 0 %, Hill slope 4.778, Maximum measured 68.413 %, Maximum response 100 %, Minimum measured -0.525 %, R squared 0.993): > 50 µM
EC90 ([2]; Zika virus, Vero C1008, Maximum measured -1.389 %, Minimum measured -3.372 %): > 50 µM
EC50 ([2]; vero c1008): > 50 µM
EC50 ([3]; Dengue virus, Vero C1008): > 50 µM
EC90 ([3]; Dengue virus, Vero C1008, Maximum measured 117.716 %, Minimum measured 103.927 %, P-gp concentration 500 nM, P-gp inhibitor CP100356): > 50 µM
EC90 ([3]; Dengue virus, Vero C1008, Maximum measured 161.231 %, Minimum measured 110.618 %, P-gp concentration 500 nM, P-gp inhibitor CP100356): > 50 µM

CC(C)NC(=O)[C@H](Nc1ccc2c(c1)CNC2)c1cc(Cl)cc2[nH]ncc12
EC50 ([5]; VeroE6/TMPRSS2): > 16.7 µM
EC90 ([5]; VeroE6/TMPRSS2, Maximum measured 103.391 %, Minimum measured 35.108 %): > 16.7 µM
EC50 ([2]; Zika virus, Vero C1008): > 50 µM
EC90 ([2]; Zika virus, Vero C1008, Maximum measured -0.394 %, Minimum measured -3.218 %): > 50 µM
EC90 ([4]; Baseline response 0 %, Hill slope 0.274, Maximum measured 19.104 %, Maximum response 100 %, Minimum measured -8.849 %, R squared 0.058): > 50 µM
EC90 ([4]; Baseline response 0 %, Hill slope 0.987, Maximum measured 78.474 %, Maximum response 100 %, Minimum measured 2.604 %, R squared 0.941): > 50 µM
EC90 ([4]; Zika virus, Vero C1008, Baseline response 0 %, Hill slope 2.014, Maximum measured 45.209 %, Maximum response 100 %, Minimum measured -1.87 %, R squared 0.776): > 50 µM
EC50 ([4]; vero c1008): > 50 µM and 5.7 µM
EC90 ([3]; Dengue virus, Vero C1008, Maximum measured 125.719 %, Minimum measured 102.313 %, P-gp concentration 500 nM, P-gp inhibitor CP100356): > 50 µM
EC90 ([3]; Dengue virus, Vero C1008, Maximum measured 136.006 %, Minimum measured 106.773 %, P-gp concentration 500 nM, P-gp inhibitor CP100356): > 50 µM
EC90 ([3]; Dengue virus, Vero C1008, Maximum measured 137.073 %, Minimum measured 93.467 %, P-gp concentration 500 nM, P-gp inhibitor CP100356): > 50 µM
EC90 ([3]; Dengue virus, Vero C1008, Baseline response 0 %, Hill slope 0.455, Maximum measured 96.007 %, Maximum response 100 %, Minimum measured 82.569 %, P-gp concentration 500 nM, R squared 0.098, P-gp inhibitor CP100356): > 6.25 µM
EC50 ([3]; vero c1008): > 50 µM
